Results reported in patent US20120065198A2, “Detection and Treatment of Schizophrenia” (Tokai University Educational System, priority 2007, published 2012).

What was measured:
pentosidine formation [1] = assay: Inhibitory effect on AGEs (pentosidine) formation in serum of renal failure patients; type: biochemical, human; conditions: final concentration 5 mM, 1 week at 37° C.; for Pentosidine Formation Ratio (%): control as 100%; for AGE Formation Inhibition Ratio (%): determined from the pentosidine formation ratio
Procedure: To 450 μl of protein (serum of renal failure patients with an informed consent) was added 50 μl of a solution of each test compound in dimethylsulfoxide (final concentration: 5 mM), and the resulting mixture was incubated for 1 week at 37° C. The quantity of pentosidine, which is one of the AGEs formed, was subsequently measured as follows.
First, in order to release the pentosidine formed in the protein, 50 μl of 10% trichloroacetic acid was added to 50 μl of the reacted sample, and the mixture was centrifuged to precipitate the protein that was then collected. The collected protein was washed with 300 μl of 5% trichloroacetic acid and dried; 100 μl of 6 N hydrochloric acid was subsequently added, and hydrolysis was performed for 16 hours at 110° C. The quantity of pentosidine (nmol/l) formed was measured by HPLC using a fluorescence detector (ODS C18, 4.6×250 mm, 335 nm, 385 nm), according to a gradient method (30 minutes, 1.0 ml/min) using a mobile phase of distilled water containing 0.1% trifluoroacetic acid/80% acetonitrile containing 0.08% trifluoroacetic acid (Miyata, T et al.,: J. Am. Soc., Nephrol., 7, 1198-1206, 1996; Miyata, T., et al., Proc. Natl. Acad. Sci., USA, 93 2353-2358, 1996).
In order to evaluate the inhibitory effect of each test compound on AGE formation, the proportion of the quantity of pentosidine formed was calculated as the ratio (%) of pentosidine formation relative to the quantity of pentosidine formed with a control as 100%. Further, from the calculated value, the ratio of inhibition of pentosidine formation (the ratio (%) of inhibition of AGE formation) was also determined.

pentosidine formation [2] = assay: Inhibitory effect on pentosidine formation in plasma of hemodialysis patients; type: biochemical, human; conditions: final concentrations 0.8, 2.0, and 5.0 mM, 1 week at 37° C., FIG. 13
Procedure: (§1) Plasma was collected from hemodialysis patients prior to dialysis with the patients' consent, and the plasma was filtered and sterilized. To the plasma (450 μL) was added solutions of TM-2002 in dimethylsulfoxide (50 μL) (final concentrations: 0.8, 2.0, and 5.0 mM), and the mixtures were incubated for 1 week at 37° C. The levels of the pentosidine formation were measured.
Pentosidine was measured as follows. To each sample (50 μL) after incubation was added an equal volume of 10% trichloroacetic acid, and the mixture was subsequently centrifuged at 5,000 g for 5 minutes. After the supernatant was removed, the pellet was washed with 5% trichloroacetic acid (300 μL). […] The concentration of the released pentosidine was measured by reverse-phase HPLC using a fluorescence detector (RF-10A, Shimadzu Corporation) (Miyata, T. et al.; Proc. Natl. Acad. Sci. USA, Vol. 93, p. 2353-2358, 1996). The effluent was monitored at the excitation/emission wavelength of 335/385 nm. […]
The inhibitory effect was evaluated by comparison with a positive control (pyridoxamine (Sigma)), which was reacted in the same manner as Compound TM-2002. […] The results (the quantities of pentosidine: nmol/ml) are shown in FIG. 13, wherein the “control” hereinbelow means a negative control using only the solvent.

pentosidine formation [3] = assay: Inhibitory activity on pentosidine formation, samples incubated with BSA and arabinose; type: biochemical; conditions: Table 13; incubated with BSA and arabinose instead of patient plasma
Procedure: as §1
Pentosidine was measured as follows. To each sample (50 μL) after incubation was added an equal volume of 10% trichloroacetic acid, and the mixture was subsequently centrifuged at 5,000 g for 5 minutes. After the supernatant was removed, the pellet was washed with 5% trichloroacetic acid (300 μL). The pellet was dried under reduced pressure, and subsequently hydrolyzed in a 6N HCl solution (100 μL) under a nitrogen atmosphere for 16 hours at 110° C. To the acid hydrolysate was then added 5N NaOH (100 μL) and 0.5 M phosphate buffer (pH 7.4) (200 μL); the mixture was subsequently filtered through a micropore filter with 0.5 μm pores and diluted with PBS. The concentration of the released pentosidine was measured by reverse-phase HPLC using a fluorescence detector (RF-10A, Shimadzu Corporation) (Miyata, T. et al.; Proc. Natl. Acad. Sci. USA, Vol. 93, p. 2353-2358, 1996). The effluent was monitored at the excitation/emission wavelength of 335/385 nm. Synthetic pentosidine was used as the reference material. The detection limit of pentosidine was 0.1 pmol/mg protein.
(2) Other edaravone analogues (Compounds (1) or (2)) were investigated for their inhibitory activities on pentosidine formation in the same manner as in Section (1) above, except that the samples were incubated with BSA and arabinose instead of the patient plasma. In the tables, “-” means that the test was not conducted.

| Structure (SMILES) | Pentosidine Formation Ratio (%) (pentosidine formation [1]) | AGE Formation Inhibition Ratio (%) (pentosidine formation [1]) | inhibition of pentosidine formation compared to pyridoxamine (positive control) (pentosidine formation [2]) | Pentosidine Formation Ratio (%) at 5 Concentration (pentosidine formation [3]) [%] |
| --- | --- | --- | --- | --- |
| NC1=NN(c2ccccc2)C(=O)C1C(=O)C(=O)Nc1ccccc1 (centres unmarked) [(1)] | 18.1 | 81.9 |  |  |
| NC1=NN(c2ccccc2)C(=O)C1C(=O)C(=O)Nc1nccs1 (centres unmarked) [(2)] | 26.1 | 73.9 |  |  |
| CC1=NN(c2ccc(N)cc2)C(=O)C1CCO (centres unmarked) [(5)] | 9.33 | 90.67 |  |  |
| NC1=NN(c2ccccc2)C(=O)C1Sc1nnnn1-c1ccccc1 (centres unmarked) [(6)] | 16.8 | 83.2 |  |  |
| CC1=NN(c2ccccc2)C(=O)C1CCC(=O)O (centres unmarked) [(7)] | 27.2 | 72.8 |  |  |
| CC(=O)NC1C(=O)N(c2ccccc2)N=C1C (centres unmarked) [(8)] | 23.5 | 76.5 |  |  |
| CC1=NN(c2ccccc2)C(=O)C1C(c1ccccc1)c1c(C)nn(-c2ccccc2)c1O (centres unmarked) [(9)] | 30.8 | 69.2 |  |  |
| O=C1C2CCCC2=NN1c1ccccc1 (centres unmarked) [(10)] | 18.0 | 82.0 |  |  |
| CC1=NN(c2ccccc2)C(=O)C1NS(=O)(=O)c1ccc(C)cc1 (centres unmarked) [(11)] | 24.9 | 75.1 |  |  |
| CC1=NN(c2cccc([N+](=O)[O-])c2)C(=O)C1Sc1nnnn1-c1ccccc1 (centres unmarked) [(13)] | 45.4 | 54.6 |  |  |
| O=C(NC1=NN(c2ccccc2)C(=O)C1Sc1nnnn1-c1ccccc1)c1ccccc1 (centres unmarked) [(14)] | 22.1 | 77.9 |  |  |
| C/C(=N\O)C1C(=O)N(c2ccccc2)N=C1c1ccccc1 (centres unmarked) [(16)] | 25.8 | 74.2 |  |  |
| CC1=NN(c2ccccc2)C(=O)C1C1C(=O)N(c2ccccc2)N=C1C (centres unmarked) [(17)] | 35.0 | 65.0 |  |  |
| CCC1C(=O)N(c2ccc(Cl)cc2)N=C1C (centres unmarked) [(18)] | 18.0 | 82.0 |  |  |
| CCCC1=NN(c2ccccc2)C(=O)C1CC(=O)c1ccccc1 (centres unmarked) [(20)] | 12.4 | 87.6 |  |  |
| Cc1ncc2c(c1O)C(c1c(C)nn(-c3ccccc3)c1O)OC2 (centres unmarked) [No. 68, 1-(5-hydroxy-3-methyl-1-phenyl-1H-pyrazol-4-yl)-6-methyl-1,3-dihydro-furo[3,4-c]pyridin-7-ol] |  |  | significantly inhibits the pentosidine formation as compared to pyridoxamine |  |
| CC1=NN(c2cccc(Cl)c2)C(=O)/C1=C/c1ccc(O)cc1 [compound 71, 2-(3-chloro-phenyl)-4-(4-hydroxy-benzylidene)-5-methyl-2,4-dihydropyrazol-3-one] |  |  |  | 4.63 |
| CC1=NN(c2ccccc2)C(=O)/C1=C/c1ccc(OCc2ccccc2)cc1 [compound 72, 4-(4-benzyloxy-benzylidene)-5-methyl-2-phenyl-2,4-dihydropyrazol-3-one] |  |  |  | 7.63 |
| CC1=NN(c2cccc(Cl)c2)C(=O)/C1=N/O [compound 73, 2-(3-chloro-phenyl)-5-methyl-2H-pyrazol-3,4-dione-4-oxime] |  |  |  | 66.42 |
| CCOC(=O)C1=NN(c2ccccc2)/C(=C2\C(=O)N(c3ccccc3)N=C2c2ccccc2)S1 [compound 74] |  |  |  | 87.24 |
